This is an account of results in patent publication US7968081B2, “Peptide for diagnosing, preventing and treating atherosclerosis and uses thereof” (Kyungpook National University Industry—Academic Cooperation …, priority 2007, dated 2011).

Assay [1] deals with atherosclerotic plaque tissues. Put plainly: In vivo atherosclerotic targeting of radioisotope-conjugated peptide (autoradiography of aortae). Also on record: species or system mice. As to conditions: tail vein, circulation 15 min. On the procedure:
In order to evaluate in vivo targetability of an inventive peptide through a higher sensitivity method, the peptide was synthesized and then an N-terminus of the peptide was tagged with a radioisotope (^111In). The ^111In-tagged peptide of the present invention at a dose of 160 μCi was injected via the tail vein into the blood of atherosclerotic mice and normal mice, followed by circulation for 15 min. Thereafter, aortae were removed from each mouse and autoradiography with X-ray film exposure was carried out. As a control group, the ^123I-tagged peptide (^123I-CLEVSRKNC) was injected at a dose of 104 μCi.

Assay [2] concerns the target T1, IL-4R (Homo sapiens, UniProt P24394).
T1 sequence (P24394 26-825): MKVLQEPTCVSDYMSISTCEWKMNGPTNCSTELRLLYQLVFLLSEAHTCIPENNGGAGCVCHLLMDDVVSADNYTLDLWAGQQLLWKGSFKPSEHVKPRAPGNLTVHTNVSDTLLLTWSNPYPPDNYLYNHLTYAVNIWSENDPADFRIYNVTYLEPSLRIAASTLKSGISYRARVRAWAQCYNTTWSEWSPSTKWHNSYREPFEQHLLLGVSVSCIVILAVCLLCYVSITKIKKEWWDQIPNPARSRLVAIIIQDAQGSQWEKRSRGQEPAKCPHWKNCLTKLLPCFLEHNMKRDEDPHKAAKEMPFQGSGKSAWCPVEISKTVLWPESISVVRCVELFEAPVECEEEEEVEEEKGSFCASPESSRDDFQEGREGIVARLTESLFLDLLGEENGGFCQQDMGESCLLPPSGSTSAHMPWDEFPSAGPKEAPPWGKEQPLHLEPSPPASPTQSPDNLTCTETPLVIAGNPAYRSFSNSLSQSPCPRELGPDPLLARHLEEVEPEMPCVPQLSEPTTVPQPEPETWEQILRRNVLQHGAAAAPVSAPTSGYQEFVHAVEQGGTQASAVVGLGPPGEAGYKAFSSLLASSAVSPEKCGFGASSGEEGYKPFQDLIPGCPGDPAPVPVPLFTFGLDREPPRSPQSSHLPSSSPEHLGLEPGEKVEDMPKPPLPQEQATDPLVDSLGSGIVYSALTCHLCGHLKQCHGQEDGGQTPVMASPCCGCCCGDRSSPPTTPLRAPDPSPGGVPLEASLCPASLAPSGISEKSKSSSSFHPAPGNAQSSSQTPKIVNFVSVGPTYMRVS
Briefly: Bindability of peptide to IL-4R-expressing CHO-K1 cells (fluorescence microscopy). The following applies: 10 μM peptide, room temperature, 1 hour. It counts as binding. An excerpt:
In order to further confirm roles of IL-4R as the receptor for the peptide of the present invention, a plasmid capable of expressing IL-4R (Cat. #TC119877, Origene, USA) was introduced into IL-4R-deficient CHO-K1 cells according to a conventional method known in the art, followed by expression of IL-4R, and binding of IL-4R with the peptide of the present invention was examined.
The cells were stained with antibodies (1:200 dilution) directed against. IL-4R and cell nuclei were stained with DAPI, followed by fluorescence microscopic examination. As a result, a large amount of IL-4R (red fluorescence) was present on the cell surface (FIG. 6B). Next, CHO-K1 and CHO-K1/IL-4R cells were reacted with 10 μM of the FITC-C-RKRLDRNC peptide at room temperature for 1 hour.

The subject of assay [3] is atherosclerotic plaque tissues. Put plainly: In vivo atherosclerotic targeting of fluorescent dye-conjugated peptide (fluorescence microscopy of frozen sections). The following applies: atherosclerosis-induced mice; final blood concentration 50 μM via left ventricle, circulation 15 min. An excerpt: C57BL/6 mice (Ldlr−/−) into which deficiency of a low-density lipoprotein (LDL) receptor was introduced by a genetic engineering technique were fed daily for 10 weeks with 3 g of high-cholesterol diet, thereby inducing atherosclerosis in animals. The high-cholesterol diet was a special animal feed containing 1.25% cholesterol, 15% fat and 0.5% cholate (Oriental Yeast Co., Japan).
Here, the peptide was synthesized by tagging an N-terminus of the peptide with FITC (fluorescein isothiocyanate) as a green fluorescent dye. The synthesized FITC-CRKRLDRNC peptide and a control peptide (FITC-NSSVDK) at final blood concentrations of 50 μM were injected into the atherosclerosis-induced mice via the left ventricle of animals, followed by circulation for 15 min. Thereafter, the aortae were removed from each mouse, and frozen sections were prepared, followed by Oil Red O (fat marker, Sigma-Aldrich, USA) staining or vWF (vascular endothelial cell marker, 1:5000 dilution, Abcam, USA) and Mac-3 (macrophage marker, 1:50 dilution, BD, USA) staining (Matter et al., Circulation Research, 95:1225-1233, 2004). In order to stain nuclei in tissues, a mounting medium containing a nuclear staining dye, 4′,6-diamidino-2-phenylindole (DAPI) (manufactured by Molecular Probe, USA) was treated on a slide, according to a conventional method known in the art, followed by fluorescence microscopic examination.

In assay [4] the target is T1, IL-4R. Briefly: Bindability of peptide to HT-1376 cells with inhibited expression of IL-4R (siRNA). As to conditions: same conditions as in FIG. 6 (10 μM, room temperature, 1 hour). It counts as binding. The arrangement: HT-1376 cells that essentially show constitutive expression of IL-4R; endogenous in cells; host or cells: HT-1376. On the procedure: Silencing RNA for IL-4R (Cat. #16708A, Ambion, USA) was introduced into HT-1376 cells that essentially show constitutive expression of IL-4R, according to a conventional method known in the art, and treated for 24 hours to thereby result in substantially no expression of IL-4R, followed by evaluation of peptide binding. More specifically, 10 nM of IL-4R silencing RNA synthesized by the manufacturer was mixed with a siPORT™ NeoFX™ lipid transfection agent (Ambion, USA), and the mixture was treated for 24 hours on HT-1376 cells grown in a 4-well chamber slide, such that IL-4R silencing RNA is incorporated into the cells. Thereafter, the culture medium was replaced with one containing 10% bovine serum and the cells were recovered for 24 hours. After staining of cells with IL-4R antibodies and nuclear DAPI staining under the same conditions as in FIG. 6, a cellular expression level of IL-4R was examined. After IL-4R staining, the FITC-CRKRLDRNC peptide was reacted with the cells under the same conditions as in FIG. 6, and a binding degree of the peptide was measured.

The test system of assay [5] is IL-4-induced phosphorylation of STAT6. Put plainly: IL-4-induced phosphorylation of STAT6 in THP1 monocytes differentiated into macrophages (Western blot). It is filed as cell-based. As for the experimental part:
(§1) THP1 monocytes were treated and activated with 100 ng/mL of phorbol myristate acetate (PMA) for 3 days to thereby induce differentiation into macrophages. The culture medium was replaced with a serum-free fresh medium, and the cells were cultured for 18 hours and treated with 0.67 nM of IL-4 alone for 10 min. Meanwhile, the peptide of the present invention alone or in conjunction with IL-4 was treated at concentrations of 0.67 nM (1×, one-fold concentration that of IL-4), 6.7 nM (10×, 10-fold concentration that of IL-4) and 67 nM (100×, 100-fold concentration that of IL-4) on cells which are under the same culture phase. After the reaction was complete, cells were disrupted according to a conventional method known in the art and cell lysates were subjected to electrophoresis and Western blot analysis using antibodies. As assay antibodies, STAT6 antibody and phospho-STAT6 (P-STAT6) antibody (Cell Signaling, USA), AKT antibody and phosphor-Thr308-AKT antibody or phosphor-Ser473 AKT antibody (Santa Cruz, USA) and β-actin antibody were used.
A general note: Immunoblotting shows a protein as a band on a membrane.

For assay [6], the system named is IL-4-induced phosphorylation of AKT. Briefly: IL-4-induced Thr308 and Ser473 phosphorylation of AKT in THP1 monocytes differentiated into macrophages (Western blot). It counts as cell-based. On the procedure:
as §1

Assay [7] relates to aortic atherosclerotic plaques. Put plainly: In vivo atherosclerotic targeting of selected phage clones (phage titer recovered from aorta). Also on record: species or system mice. As to conditions: tested as phage clone; SEQ ID NO: 1 versus SEQ ID NO: 2. As for the experimental part: C57BL/6 mice (Ldlr−/−) into which deficiency of a low-density lipoprotein (LDL) receptor was introduced by a genetic engineering technique were fed daily for 10 weeks with 3 g of high-cholesterol diet, thereby inducing atherosclerosis in animals.
Thereafter, aorta were removed from each mouse and aortic tissues were ground to collect cells. The cells were treated with 100 μl of DMEM containing 1% NP-40 at 4° C. for 10 min, and 900 μl of BL21 E. coli culture as a host was then added to recover cell-bound phages. The recover phages were subjected to titer determination by a conventional method known in the art.

The mark [8] stands for this setting: peptide at 100-fold concentration.

Ends that are not written are not given here. * marks the point of attachment. FITC = O=C1OC2(c3ccc(O)cc3Oc3cc(O)ccc32)c2ccc(NC(=S)*)cc21

For the molecule “^123I-CLEVSRKNC (not fully specified (N-terminus); cysteine pairing not given here; also: 123I label, attachment not given here) [123I-tagged control peptide for autoradiography]”, the “radioactivity resulting from aortic targeting of the peptide” value in assay [1] (aortae of atherosclerotic mice, 160 μCi (111In peptide) or 104 μCi (123I control)) is “substantially no detection of radioactivity”; in assay [1] (aortae of normal mice, 104 μCi (123I control)) it was “substantially no detection of radioactivity”.
Regarding “FITC-NSSVDK ({FITC}-NSSVDK) [FITC-labeled control peptide, reference compound]”, the “binding to CHO-K1/IL-4R cells (IL-4R-expressing)” value with IL-4R [2] is given as “no binding”. Also, the “peptide found in aortic atherosclerotic plaque tissues (green fluorescence)” value in assay [3] is recorded as “substantially no control peptide was found”. The “binding to HT-1376 cells (constitutive expression of IL-4R)” value with IL-4R [4] is “almost no binding”.
Turning to “CRKRLDRNC (peptide 1, completely synthesized) [peptide of the present invention]”, in assay [5] (peptide at 100-fold concentration that of IL-4 (67 nM) with 0.67 nM IL-4), the “effect on IL-4-induced phosphorylation of STAT6” value is “significant inhibitory effects”. The “amount of total STAT6 proteins” value in assay [5] (peptide with IL-4) was “not affected”. Besides, in assay [6] (setting [8]), the “antagonistic effect on Ser473 phosphorylation of AKT relative to Thr308” value was “greater antagonistic effects” and the “level of Ser473 phosphorylation of AKT versus control group not treated with IL-4” value is given as “inhibited to a lower level than that of the control group”. The “effect on IL-4-induced phosphorylation of AKT (Thr308 and Ser473)” value in assay [6] (peptide at 100-fold concentration (67 nM) with 0.67 nM IL-4) is “inhibited”. In addition, the “atherosclerotic targeting, comparison of the two selected phage clones” value in assay [7] was “more intense atherosclerotic targeting”.

B1: IL-4: cytokine used as stimulus of STAT6 and AKT phosphorylation (protein)
chain: HKCDITLQEIIKTLNSLTEQKTLCTELTVTDIFAASKNTTEKETFCRAATVLRQFYSHHEKDTRCLGATAQQFHRHKQLIRFLKRLDRNLWGLAGLNSCPVKEANQSTLENFLERLKTIMREKYSKCSS
For B1, in assay [5] (0.67 nM IL-4 alone, 10 min), the “phosphorylation of STAT6 induced by IL-4” value is listed as “significant increase”. For the same molecule, the “Thr308 and Ser473 phosphorylation of AKT induced by IL-4” value in assay [6] (0.67 nM IL-4, 10 min) is “slightly increased”.
